Experimental findings from PubChem BioAssay (NCI) are described below.

Molecules are shown by their SMILES.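 Values below derive from 48-hour exposures of cells grown in 96-well plates, with endpoints linearly interpolated between the two concentrations bracketing the appropriate inhibition level. At the TGI there is no net growth.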 Bounds are passed on as bounds.

Test systems include MCF7 breast; UACC-62 melanoma; 786-0 renal; CAKI-1 renal; K-562 leukemia; LOX IMVI melanoma; EKVX NSCLC; U251 CNS; NCI-H522 lung; NCI-H226 lung; HCT-15 colon; RXF 393 renal; MOLT-4 leukemia; OVCAR-5 ovarian; RPMI-8226 leukemia; NCI-H23 lung; SF-295 CNS; UACC-257 melanoma.
What all share (test): inhibition of tumour cell growth, NCI panel, 48 h

Take `CCCN=C(NC(=O)c1ccc(Cl)cc1)SC`: the TGI in the assay on MCF7 breast, in the assay with UACC-62 melanoma, in the assay with 786-0 renal, with CAKI-1 renal, with K-562 leukemia and in the assay with LOX IMVI melanoma was more than 100 µM in each case. For the same molecule, the TGI with EKVX NSCLC, in the assay on U251 CNS, in the assay on NCI-H522 lung, in the assay with NCI-H226 lung, in the assay with HCT-15 colon and with RXF 393 renal was more than 100 µM each time. Also, the TGI in the assay with MOLT-4 leukemia, with OVCAR-5 ovarian, with RPMI-8226 leukemia, with NCI-H23 lung, with SF-295 CNS and in the assay with UACC-257 melanoma was more than 100 µM throughout.

`O=c1[nH]nc(-c2cccc(Br)c2)[nH]1`: the TGI in the assay with MCF7 breast, in the assay with UACC-62 melanoma, with 786-0 renal, in the assay on CAKI-1 renal, with K-562 leukemia and in the assay with LOX IMVI melanoma was more than 100 µM each time. The TGI in the assay on EKVX NSCLC was 79.1 µM; in the assay with U251 CNS, more than 100 µM; in the assay with NCI-H522 lung, more than 100 µM; in the assay with NCI-H226 lung, more than 100 µM; in the assay with HCT-15 colon, more than 100 µM; in the assay with RXF 393 renal it was more than 100 µM. Besides, the TGI in the assay with MOLT-4 leukemia, with OVCAR-5 ovarian, in the assay on RPMI-8226 leukemia, in the assay on NCI-H23 lung, in the assay on SF-295 CNS and with UACC-257 melanoma was more than 100 µM in each case.
